According to patent publication US20040138826A1, “Experimental design and data analytical methods for detecting and characterizing interactions and interaction thresholds on fixed ratio rays of polychemical mixtures and subsets thereof” (priority 2002, published 2004):
Where two headings read alike, the source gives them in different places.

Key:
[1] = system: normal human epidermal keratinocytes (NHEK); settings: for LD50 (estimated): Example 6; for LD50 (50% cell killing in individual cytotoxicity assays): predetermined, Example 5; for Sample Mean (% viability): single metal, 24 hr
Method: Cells and culture conditions. Cryopreserved, pooled normal human epidermal keratinocytes (NHEK) were purchased from the Clonetics Corp. (San Diego, Calif.). NHEK cells were grown in defined Keratinocyte Growth Medium-KGM™ (Clonetics).
Cytotoxicity analyses. For toxicity studies, cells were plated at a density of 2,500 cells/cm^2 in 6-well plastic tissue culture plates and grown for 24 hr before metal treatment. Triplicate wells of cells were treated with increasing concentrations of As, Cr, Cd, Pb, or a mixture of the four metals for 24 hr. Concentrations used for As and Cr were 0.3, 1, 3, 10 , and 100 mM. The Cr stock was made by mixing a 1:1 ratio of trivalent and hexavalent chromium. Cd and Pb were administered at 3, 10, 30, 100, and 300 mM. […] The concentrations of these three metals in the 1× mixture solution was 7.7 mM As, 4.9 mM Cr, 6.1 mM Cd. […] This 1× solution was serially diluted at a 1:3 ratio to get 0.333, 0.111, 0.037, 0.0123, 0.004, and 0.0014 dilution groups. Double deionized water was used as the vehicle control in all cases. After exposure to the individual metals or metal mixture, cells were refed with fresh metal-free KGM medium and incubated for 3 days prior to viability analysis by the MTT assay.
MTT assay. The MTT assay was carried out using a modification of the method of Mosmann (1983). MTT was dissolved at 5 mg/ml in 1× PBS [phosphate-buffered saline]. This stock solution was filtered through a […] and stored at 4° C. Immediately before use, the stock solution was diluted to 0.5 mg/ml with serum-free KGM to make a working solution. Working solution (1 ml) was added to each well of cells after aspiration of medium. Cells were incubated at 37° C. for 3 hr, after which time, the MTT was removed by aspiration. Cells were subsequently lysed by addition of 0.5 ml of dimethyl sulfoxide (DMSO). The absorbence at 550 nm of samples as well as a DMSO blank was read on a Microplate Autoreader (Bio-Tek Instruments, Inc, Winooski, Vt.). The absorbance of the DMSO blank was subtracted from all values. All absorbance values were standardized to the water vehicle control.
The methodology introduced in this paper is illustrated with cytotoxicity data obtained from assessing interactions among arsenic (As), cadmium (Cd), chromium (Cr), and lead (Pb) in human keratinocytes. The experimental data were obtained from Ray Yang and colleagues at Colorado State University. The endpoint of interest is the percent viability of treated NHEK cells using the MTT assay. […] This 1× solution was serially diluted at a 1:3 ratio to get 0.333, 0.111, 0.037, 0.0123, 0.004, and 0.0014 dilution groups. Double deionized water was used as the vehicle control in all cases.
After exposure to individual metals or metal exposure, cells were refed with fresh metal-free KGM medium and incubated for 3 days prior to viability analysis by the MTT assay. Details of the experimental protocol and methods are described elsewhere (24, 1) and are not included here.

[2] = system: female CD-1 mice; test: Liver damage by serum sorbitol dehydrogenase (SDH) after 14 days oral gavage of trihalomethane DBPs; settings: for Estimate of slope parameter γi, additivity model for SDH response: generalized linear model with power link, λ = 0.5, single chemical data only, female CD-1 mice, 14 days oral gavage; for Mean SDH (STD): positive control
Method: The mixture selected for the study used to illustrate the methodology proposed here is that of four trihalomethanes formed as disinfection by-products (DBPs) when water is chlorinated. […] The endpoint of interest is liver damage, as measured by serum sorbitol dehydrogenase (SDH) levels in female CD-1 mice after 14 days of exposure by oral gavage. Seven separate experiments were conducted: four single chemical studies and three mixture studies. A more complete description of the experimental methods is provided in Gennings, et al. (1997; 2000). […] The fixed mixing ratio of interest is associated with the chlorination process of disinfection (McDonald et al., 1999). The purpose of this study was to determine if the four DBPs combine additively, i.e., with no interaction.
The data used to illustrate the methodology developed in the following sections involves the combination of four chemicals, which are disinfection by-products in drinking water. Summary statistics for the single chemical data are provided in Gennings et al. (1997, 2000). A generalized linear model with a power link function, [formula]
After the single chemical studies were completed, three mixture studies were conducted. […] In order to verify that the dose-response relationship was consistent across the different studies, the additivity model given in (1) was used to predict the response for each of the positive control groups. […] The p-value is associated with the Wald-type test for equivalence of the two means.
The objective of this paper is to develop a method for testing for departure from additivity when the single chemical data cannot be used to describe the no interaction case. The mixture data of interest are assumed to result from a fixed-ratio ray design.

[3] = system: rats; settings: single chemical data, rats
Source text: The endpoint of interest is neurotoxicity in rats as measured by a gait score dichotomized to indicate presence or absence of a gait abnormality (i.e., incoordination, loss of balance, etc.). The fixed-ratio ray under study was chosen based on the relative dietary exposure estimates of each chemical as projected by the U.S. EPA Dietary Exposure Evaluation Model (DEEM) and is given by (0.040:0.002:0.031:0.825:0.102) for ACE, DIA, CPF, MAL, DIM, respectively. […] (Note: Such a strategy can be extended for identifying the impact of the unidentified fraction in a complex mixture.)
The biological endpoint of interest is an indicator of neurotoxicity based on evidence of the presence or absence of a gait abnormality (Moser, 1995). In order to appropriately constrain the probability of a response to be between 0 and 1, a logit link function was used, i.e., g(μ)=log(μ/(1−μ)). It was assumed throughout that the variance changes as a binomial random variable such that Var(Y)=τμ(1−μ) (e.g., McCullagh and Nelder, 1989).
The resulting mixture experiment consisted of a vehicle control (n=14), ‘positive controls’ for ACE alone (6 and 30 mg/kg; n=6, 14, respectively), CPF alone (10, 20, 30 mg/kg; n=6, 8, 6, respectively), DIAZ alone (50 and 125 mg/kg; n=6, 14, respectively), MAL alone (350 mg/kg; n=14), DIM alone (10, 25, 50 mg/kg; n=6, 8, 6, respectively), and six total dose mixture concentrations (10, 55, 100, 200, 300 and 450 mg/kg; n=12 rats per dose group for a total of 72 rats exposed to a mixture of the chemicals) at a fixed mixing ratio ray of (0.040:0.002:0.031:0.825:0.102) for (ACE:DIA:CPF:MAL:DIM). Similarly, the design for a second fixed-ratio ray was based on a reduced number of the pesticides (omitting MAL) with the remaining pesticides at the same relative proportions as in the ‘full’ mixture study. The experiment consisted of a vehicle control (n=8), positive controls (n=8 per group) for ACE (30 mg/kg), CPF (20 mg/kg), DIA (125 mg/kg), and DIM (25 mg/kg), and six total dose mixture concentrations (1.75, 9.6, 17.5, 35, 52.5, and 78.8 mg/kg; n=12 rats per dose group) at a fixed mixing ratio ray of (0.229:0.011:0.177:0.583) for (ACE:DIA:CPF:DIM). Casey et al (2003a,b) describe the motor activity data in the mixture of these five pesticides.

[4] = system: healthy adult rats; settings: rats; for Mean Motor Activity Response: single chemical
Source text: To motivate the use of these fixed-ratio mixture ray designs consider a study which examines exposure to environmentally relevant pesticides. The OP pesticides chosen for study, based on usage patterns (i.e. pesticides used on same or similar crops) and market share (i.e. highest volume pesticides), were acephate, diazinon, chlorpyrifos, dimethoate, and malathion. Motor activity, a count of the number of passes made across a central area, was used to assess toxicity in healthy adult rats. A full five-pesticide fixed-ratio ray, given by (0.040:0.002:0.031:0.102:0.825) for (acephate:diazinon:chlorpyrifos:dimethoate:malathion), was chosen based on relative dietary exposure estimates of each chemical as projected by the U.S. EPA Dietary Exposure Evaluation Model (DEEM).
Single chemical data were collected approximately 18 months prior to the data along the full fixed-ration ray.
Fixed-ratio ray designs were chosen to study interactions among combinations of multiple pesticides. The pesticides chosen for these studies, based on usage patterns (i.e., pesticides used on the same or similar crops) and market share (i.e., highest volume pesticides), were acephate, diazinon, chlorpyrifos, dimethoate, and malathion. Motor activity, a count of the number of passes made across a central area, was chosen to assess the toxicity of these pesticides in healthy adult rats. The fixed-ratio ray under study was chosen based on the relative dietary exposure estimates of each chemical as projected by the U.S. EPA Dietary Exposure Evaluation Model (DEEM) and is given by (0.040:0.002:0.031:0.102:0.825) for acephate, diazinon, chlorpyrifos, dimethoate, and malathion respectively.
The five-pesticide study described in the introduction is used to illustrate the sample size and power methods developed in Section 3. Due to the high potential of aggregate exposure to OP pesticides, researchers were initially interested in testing the hypothesis of additivity, given in (5), along the full five-pesticide fixed-ratio ray, given by (0.040:0.002:0.031:0.102:0.825) for ([…]), that represents relative dietary exposure estimates. Single chemical data were collected and used to estimate an additivity model along the ray (analysis not shown). Since, the motor activity response is a count variable it was assumed that V(m)=m and the log link function (McCullagh and Nelder, 1989) was used to fit the generalized linear additivity model described in Section 2. […] Eighty-six animals were considered. Fourteen animals were evaluated in the control group. Twelve animals each were evaluated at 10, 55, 100, 200, 300, and 450 mg/kg. Summary statistics for the single chemical and mixture data are provided in the appendix.
The five-pesticide study described in the introduction is used to illustrate the design methodology developed in the following sections. Due to the high potential for aggregate exposure to OP pesticides, researchers were initially interested in testing the hypothesis of additivity, given in (4), along the full five-pesticide fixed-ratio ray, given by (0.040:0.002:0.031:0.102:0.825) for (acephate:diazinon:chlorpyrifos:dimethoate:malathion). Since motor activity response is a count variable, it was assumed that V(μ)=μ and the log link function (McCullagh and Nelder, 1989) was used to fit the generalized linear additivity model given in (1). […] Eighty-six animals were considered. Fourteen animals were evaluated in the control group. Twelve animals each were evaluated at 10, 55, 100, 200, 300, and 450 mg/kg.

[5] = 1.52 mM/kg, mixture study = 0.05 total dose
[6] = 1.52 mM/kg, mixture study = 1.5 total dose
[7] = 1.52 mM/kg, mixture study = 3.0 total dose

Row | SMILES | LD50 (estimated) [1] [µM] | Sample Mean (% viability) ([1]; dose 3 (mM)) | Sample Mean (% viability) ([1]; dose 10 (mM)) | Sample Mean (% viability) ([1]; dose 30 (mM)) | Estimate of slope parameter γi, additivity model for SDH response [2] | Mean SDH (STD) [2, 5] | Mean SDH (STD) [2, 6] | Mean SDH (STD) [2, 7] | also measured
1 | [Cl][Cd][Cl] [Cadmium, cadmium chloride] | 6.1 | 92.6 | 51.9 | 20.2 | – | – | – | – | LD50 (50% cell killing in individual cytotoxicity assays) [1]: 6.1 mM; Sample Mean (% viability) ([1]; dose 100 (mM)): 3.8 % viability; Sample Mean (% viability) ([1]; dose 300 (mM)): 4.6 % viability
2 | ClC(Br)Br [CDBM, chlorodibromomethane] | – | – | – | – | 3.833 | – | – | – | Mean SDH (STD) ([2]; 0.76 mM/kg, mixture study = 0.05 total dose): 38.0 (11.2); Mean SDH (STD) ([2]; 0.76 mM/kg, mixture study = 1.5 total dose): 28.1 (6.7); Mean SDH (STD) ([2]; 0.76 mM/kg, mixture study = 3.0 total dose): 19.3 (3.6)
3 | CNC(=O)CSP(=S)(OC)OC [Dimethoate, dimethoate] | – | – | – | – | – | – | – | – | effect when given alone on gait abnormality [3]: significant effect on a gait abnormality; Threshold Estimate ([4]; dose threshold for motor activity, threshold additivity model, SAR analysis): 8.72 mg/kg; Mean Motor Activity Response ([4]; dose 5 mg/kg): 188.25; Mean Motor Activity Response ([4]; dose 10 mg/kg): 188.63; Mean Motor Activity Response ([4]; dose 25 mg/kg): 107.75; Mean Motor Activity Response ([4]; dose 50 mg/kg): 103.75; Mean Motor Activity Response ([4]; dose 75 mg/kg): 101.50
4 | BrC(Br)Br [CHBr3, bromoform] | – | – | – | – | 2.441 | 64.0 (27.8) | 56.0 (24.8) | 86.4 (89.2) | –
5 | ClC(Cl)Br [BDCM, bromodichloromethane] | – | – | – | – | 3.567 | 107.3 (97.5) | 56.0 (17.4) | 48.8 (23.3) | –
6 | ClC(Cl)Cl [CHCl3, chloroform] | – | – | – | – | 1.538 | 63.1 (34.9) | 46.6 (21.5) | 24.3 (5.8) | –
7 | CC(=O)[O-].CC(=O)[O-].[Pb+2] [Lead, lead acetate] | 100 | 95.5 | 91.0 | 98.8 | – | – | – | – | cell killing ([1]; individual cytotoxicity assay): unable to get complete killing at any dose tested; Sample Mean (% viability) ([1]; dose 100 (mM)): 93.7 % viability; Sample Mean (% viability) ([1]; dose 300 (mM)): 28.9 % viability
8 | [Cr] [Chromium] | 4.9 | 79.8 | 23.9 | 6.6 | – | – | – | – | LD50 (50% cell killing in individual cytotoxicity assays) [1]: 4.9 mM; Sample Mean (% viability) ([1]; dose 0.3 (mM)): 105.1 % viability; Sample Mean (% viability) ([1]; dose 1.0 (mM)): 99.7 % viability
